Results as given in patent EP3906926A1, “PROLINE HYDROXYLASE INHIBITORS FOR USE IN THE SKELETAL MUSCLE REGENERATION” (Policlinico San Donato S.p.A.- Istituto di Ricovero e Cura …, priority 2020, dated 2021).

Experiments:
C2C12 murine myoblasts [1] = experiment: CellTox Cytotoxicity Assay; settings: at EC50 concentration (250 µM), 24 hours
Description: To assess PHDs inhibitors cytotoxicity, 5 x 10^3 C2C12 murine myoblasts were seeded in a 96-well plate.

C2C12 murine myoblasts [2] = experiment: RealTime-Glo MT Cell Viability Assay; settings: at EC50 concentration (250 µM), 24 hours
Description: RealTime-Glo™ kits MT Cell Viability Assay (Promega) was used to investigate the effects of IOX2 and FG-4592 treatment on cell viability. Briefly, 5 x 10^3 C2C12 murine myoblasts were seeded in a 96 well plate and incubated for 24 hours (T0) with MT Cell Viability Substrate (1:1000 dilution) and NanoLuc® Enzyme (1:1000 dilution). Then, 50 µM IOX2 or 40 µM FG-4592 were added to the cell cultures and incubated for other 24 hours before luminescence analysis.
RealTime-Glo™ kits MT Cell Viability Assay (Promega) was used to investigate the effects of PLG treatment on cell viability. Briefly, 5 x 10^3 C2C12 murine myoblasts were seeded in a 96 well plate and incubated for 24 hours (T0) with MT Cell Viability Substrate (1:1000 dilution) and NanoLuc® Enzyme (1:1000 dilution). Then, each PLG inhibitor was added at its EC50 to the cell cultures and incubated for other 24 hours before luminescence analysis.

MyoD = experiment: Western blot of MyoD nuclear localization; format: cell-based, murine; settings: 250 µM PLG for 24 hours
Description: (§1) For nuclei separation, 5 x 10^6 cells were collected after enzymatic digestion with trypsin (Merck), centrifuged at the maximum speed, resuspended in 400 µl of Buffer A (10 mM KCl, 0.1 mM EDTA, 1 mM DTT, 10 mM Hepes, pH 7.9), containing protease and phosphatase inhibitors cocktail (Merck), and incubated on ice for 20 minutes. Then, 10% NP40 was added to the cell suspension, mixed for 40 seconds, and centrifuged 40 seconds at the maximum speed. After centrifugation, the pellet was resuspended in 80 µl of Buffer C (0.4M NaCl, 1 mM EDTA, 1 mM DTT, 20 mM Hepes, pH 7.9), containing a protease and phosphatase inhibitors cocktail, and then mixed for 30 minutes at 4°C at the maximum speed. Finally, the nuclear suspension was centrifuged for 5 minutes at 4°C at the maximum speed, collected and transferred in a new tube. The total protein content was determined with the BCA Protein Assay Kit (Pierce), according to the manufacturer's instructions.
(§2) Proteins were denaturated by boiling for 10 minutes in sample buffer (0.6 g/100 mL Tris, 2 g/100 mL SDS, 10% glycerol, 1% 2-mercaptoethanol, pH 6.8) and loaded into 10% SDS-PAGE gel, then transferred onto a nitrocellulose membrane (Trans-blot, Bio-Rad Laboratories) by electroblotting. Nitrocellulose membranes were incubated with a blocking solution containing 5% (w/v) non-fat dry milk or 5% (w/v) BSA (Merck) in Tris-buffer saline with 0.1% Tween® 20 (TBS-T) for 1 hour. […] Membranes were washed three times for 10 minutes with TBS-T, and then incubated with the appropriate anti-mouse, anti-rabbit, or anti-goat HRP-conjugated secondary antibodies (Dako, Agilent Technologies), 1:2000 dilution, for 1 hour at room temperature. After three washes for 10 minutes with TBS-T, the immunoreactive bands were visualized using the enhanced chemiluminescence detection kit reagents (ECL Advance, GeHealthcare), according to the manufacturer's instructions.
as §1, with “For total proteins extraction, 7.5 x 10^4 cells were seeded and harvested at 7th days of skeletal muscle differentiation, as previously described. Cells were collected after enzymatic digestion with trypsin (Merck), lysed by sonication and centrifuged at 800 xg for 10 minutes. Supernatant was used to determine total protein content with the BCA Protein Assay Kit (Pierce), according to the manufacturer's instructions. For” for “For”, “(0.4 M” for “(0.4M”

PHDs = experiment: ODD-luciferase reporter assay (Dual-Glo) for PHDs inhibition; settings: C2C12 myoblasts transfected with ODD-luciferase-pcDNA3; 24 hours at 50, 100, 250, 500, 1000 µM, normoxic conditions; linear regression
Description: The IC50 was calculated using a Dual-Glo® Luciferase Assay System kit (Promega) that allows a high-throughput analysis of mammalian cells containing the Firefly (Luciferase-pcDNA3, ODD-Luciferase-pcDNA3) and Renilla (pRL-CMV) luciferase reporters. Briefly, 5 x 10^3 cells per well were seeded in a 96-well plate, and then transfected for 24 hours with a Luciferase-pcDNA3 or an ODD-Luciferase-pcDNA3 (80 ng), containing the firefly gene reporter. A co-transfection with pRL-CMV (8 ng), containing the renilla gene reporter, was performed as an internal control, according to the ViaFect Transfection Reagent® protocol (Promega). After transfection, cells were treated with 10, 25, 50, and 100 µM IOX2 or FG-4592 (R oxadustat) for 24 hours, and then an equal volume of Dual-Glo® Luciferase Reagent was added to each well, incubated at room temperature for 30 minutes, and then analyzed with a Varioskan™ LUX Multimode Microplate Reader (ThermoFisher Scientific). Then, an equal volume of Dual-Glo® Stop & Glo® Reagent was added to each well in order to quench the luminescence from the firefly reaction and to provide the substrate for the renilla luciferase. The mixture was incubated for 30 minutes before analysis. The IC50 values were calculated by linear regression.
To this purpose, the IC50 of both compounds was determined by transiently co-transfecting C2C12 myoblasts with the ODD-luciferase-pcDNA3 plasmid, containing the Oxygen Dependent Domain (ODD) of HIF-1α, and with the pRL-CMV plasmid, as the internal control (Figure 4, panel A). Then, transfected cells were treated for 24 hours with IOX2 or FG-4592 at different concentrations (10, 25, 50, and 100 µM) under normoxic conditions, and the emitted luminescence was collated to untreated controls.
The EC50 was calculated using a Dual-Glo® Luciferase Assay System kit (Promega) that allows a high-throughput analysis of mammalian cells containing the Firefly (Luciferase-pcDNA3, ODD-Luciferase-pcDNA3) and Renilla (pRL-CMV) luciferase reporters. Briefly, 5 x 10^3 cells per well were seeded in a 96-well plate, and then transfected for 24 hours with a Luciferase-pcDNA3 or an ODD-Luciferase-pcDNA3 (80 ng), containing the firefly gene reporter. A co-transfection with pRL-CMV (8 ng), containing the renilla gene reporter, was performed as an internal control, according to the ViaFect Transfection Reagent® protocol (Promega). […] Then, an equal volume of Dual-Glo® Stop & Glo® Reagent was added to each well in order to quench the luminescence from the firefly reaction and to provide the substrate for the renilla luciferase. The mixture was incubated for 30 minutes before analysis. The EC50 values were calculated by linear regression.
The EC50 of each compound was determined by transiently co-transfecting C2C12 myoblasts with the ODD-luciferase-pcDNA3 plasmid, containing the Oxygen Dependent Domain (ODD) of HIF-1α, and with the pRL-CMV plasmid, as the internal control (Figure 12, panel A).

MHC = experiment: qPCR of MHC during differentiation; format: cell-based, murine; settings: day 7 of differentiation, 250 µM PLG pre-treated myoblasts
Description: (§3) Total RNA was isolated using ReliaPrep™ RNA Miniprep Systems (Promega), and reverse transcribed to cDNA using the iScript cDNA synthesis kit (BioRad), according to the Manufacturer's instructions. Real-Time Quantitative PCR was performed on 10 ng of cDNA template, 0.2 µM primers, and GoTaq® qPCR Master Mix (Promega) in 20 µl final volume using a StepOnePlus® Real-Time PCR System (Applied Biosystem). […] RPL13 was used as the housekeeping gene. The amplification program consisted in an initial denaturation at 95°C for 3 minutes, followed by 40 cycles of 5 seconds each at 95°C and 30 seconds at 57°C; WNT7a was amplified at 53°C. Relative quantification of target genes was performed in triplicate and calculated by the equation 2^-ΔΔCt.
as §3, with “ReliaPrepTM” for “ReliaPrep™”, “2-ΔΔCt.” for “2^-ΔΔCt.”

VEGF = experiment: qPCR of HIF-1α target gene VEGF; format: cell-based, murine; settings: PLG at EC50 (250 µM), 24 hours
Description: as §3
as §3, with “ReliaPrepTM” for “ReliaPrep™”, “2-ΔΔCt.” for “2^-ΔΔCt.”

PHD2 = experiment: qPCR of HIF-1α target gene PHD2; format: cell-based, murine; settings: PLG at EC50 (250 µM), 24 hours
Description: as §3
as §3, with “ReliaPrepTM” for “ReliaPrep™”, “2-ΔΔCt.” for “2^-ΔΔCt.”

Myogenin = experiment: qPCR of Myogenin during differentiation; format: cell-based, murine; settings: day 3 of differentiation, 250 µM PLG pre-treated myoblasts
Description: as §3
as §3, with “ReliaPrepTM” for “ReliaPrep™”, “2-ΔΔCt.” for “2^-ΔΔCt.”

HIF-1α = experiment: Western blot of HIF-1α nuclear translocation; format: cell-based, murine; settings: PLG at EC50 (250 µM) for 24 hours, vs untreated control; Lamin A/C housekeeper
Description: as §1, §2
as §1, with “For total proteins extraction, 7.5 x 10^4 cells were seeded and harvested at 7th days of skeletal muscle differentiation, as previously described. Cells were collected after enzymatic digestion with trypsin (Merck), lysed by sonication and centrifuged at 800 xg for 10 minutes. Supernatant was used to determine total protein content with the BCA Protein Assay Kit (Pierce), according to the manufacturer's instructions. For” for “For”, “(0.4 M” for “(0.4M”

murine myoblasts C2C12 = experiment: Skeletal muscle differentiation, MHC immunofluorescence (fusion and differentiation indexes); format: cell-based; settings: 250 µM PLG 24 hours in GM, then 7 days in DM without inhibitor; vs untreated controls
Description: (§4) The DM was changed every day for 7 days. Cells were analyzed at 24 hours post-treatment (PT), at 3rd and 7th days of skeletal muscle differentiation.
After differentiation for 7 days in DM, cells were washed with phosphate saline buffer (PBS) and fixed for 15 minutes in 4% (w/v) paraformaldehyde at room temperature. For permeabilization and blocking, cells were incubated for 1 hour in the presence of PBS 0.1% (v/v) Triton X-100 (TX-100, Merck) and 5% (w/v) FBS (Merck) at room temperature. […] After incubation, cells were washed three times in PBS and incubated for 1 hour at room temperature with an anti-mouse FITC-conjugated secondary antibody (Jackson ImmunoResearch), diluted 1:200. […] Myogenesis was assessed by measuring the myotube area and the number of myonuclei per myotube using a fluorescent microscope (Olympus TH4-200) equipped with an acquisition camera. To quantify both differentiation and fusion indexes, ten fields were chosen randomly and, for each field, a minimum of one hundred myosin-positive myotubes with more than two myonuclei were measured using the ImageJ v1.49o software. The area and the number of nuclei per myotube was the mean of ten measurements averaged from three different experiments.
as §4

Structure (SMILES)	Cell toxicity (C2C12 murine myoblasts [1])	decrease in the proliferation rate (C2C12 murine myoblasts [2])	increase of the nuclear localization of MyoD (MyoD)	EC50 (PHDs)	enhancement of MHC (MHC)	enhancement of VEGF (VEGF)	increase of PHD2 (PHD2)	increase of Myogenin (Myogenin)	HIF-1α nuclear translocation, protein increase (HIF-1α)	fusion index (murine myoblasts C2C12)	increase in the differentiation index (murine myoblasts C2C12)
O=C(O)CCC(=O)NNC(=O)c1cc2ccccc2cn1 [PLG2]	not due to a toxic effect	20%	1.2 fold	250 µM	1.3 fold	1.1 fold	no significant changes	1.2 fold	1.3 fold	no significant changes	1.15 fold
O=C(O)CCC(=O)NNC(=O)c1cc2c(cn1)[nH]c1ccccc12 [PLG6]				undetectable							
COC(=O)CCC(=O)NNC(=O)c1cc2c(cn1)[nH]c1ccccc12 [PLG8]	not due to a toxic effect	60%	1.4 fold	250 µM	1.5 fold	1.6 fold	1.8 fold	1.4 fold	1.5 fold	no significant changes	1.15 fold
COC(=O)CCC(=O)NNC(=O)c1cc2ccccc2cn1 [PLG11]	not due to a toxic effect	17%	1.3 fold	250 µM	1.4 fold	1.2 fold	1.3 fold	1.4 fold	1.5 fold	no significant changes	1.2 fold
CN(C)c1ccnc(C(=O)NNC(=O)CCC(=O)O)c1 [PLG19]				undetectable							
COC(=O)CCC(=O)NNC(=O)c1cc(N(C)C)ccn1 [PLG23]				undetectable							
